What all share (format): biochemical
Test [1] addresses T1, Casein Kinase 2 (alpha and beta subunits) (Homo sapiens, UniProt P68400).
T1 construct: purchased New England Biolabs 6010; host or cells: E. coli
Kind of test: Kinase Selectivity Assay Casein Kinase 2. The conditions noted are these: Kinase Selectivity, Tables 2a-2k; read-out: Caseine Kinase 2 IC50. In outline:
(§1)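 Inhibition was measured as reduced ^33P-γ-ATP labelling of a biotinylated peptide substrate immobilized on streptavidin plates after one hour at 30° C.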

The target in a further test is T2, CDK1:Cyclin-B (Homo sapiens, UniProt P06493).
T2 construct: purchased New England Biolabs 6020; host or cells: insect cells
T2 sequence (P06493 whole entry): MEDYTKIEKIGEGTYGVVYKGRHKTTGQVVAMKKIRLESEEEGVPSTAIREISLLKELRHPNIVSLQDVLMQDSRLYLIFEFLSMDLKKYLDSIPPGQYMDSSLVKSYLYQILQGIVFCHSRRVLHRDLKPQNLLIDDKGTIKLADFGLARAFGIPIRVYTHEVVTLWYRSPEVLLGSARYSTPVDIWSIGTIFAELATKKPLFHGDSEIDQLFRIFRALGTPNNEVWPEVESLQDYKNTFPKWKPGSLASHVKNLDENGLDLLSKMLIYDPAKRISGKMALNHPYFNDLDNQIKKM
T2 sequence (P14635 whole entry partner): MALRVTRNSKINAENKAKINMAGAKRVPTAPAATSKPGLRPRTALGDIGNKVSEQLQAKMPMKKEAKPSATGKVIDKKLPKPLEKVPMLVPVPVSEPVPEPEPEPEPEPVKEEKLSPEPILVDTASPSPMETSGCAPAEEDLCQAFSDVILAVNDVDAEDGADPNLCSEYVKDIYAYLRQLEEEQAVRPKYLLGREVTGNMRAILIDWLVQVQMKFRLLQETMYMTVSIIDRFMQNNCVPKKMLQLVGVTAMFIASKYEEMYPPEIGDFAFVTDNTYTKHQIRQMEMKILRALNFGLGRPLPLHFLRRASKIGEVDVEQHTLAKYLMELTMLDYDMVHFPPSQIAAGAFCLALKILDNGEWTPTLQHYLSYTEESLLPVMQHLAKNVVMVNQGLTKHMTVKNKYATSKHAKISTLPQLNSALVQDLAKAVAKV
In words: CDK1 Screening Assay. Particulars: read-out: CDK1 IC50. In outline: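 Human CDK1:cyclin-B (30 ng/well) with biotinylated histone-H1 peptide and ^33P-γ-ATP, 1 h at 30° C, 1% DMSO, on streptavidin FlashPlate; incorporation read by scintillation.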

The target of a further test is Insulin Receptor Kinase (Homo sapiens, UniProt P06213). Kind of test: Kinase Selectivity Assay Insulin Receptor Kinase. Particulars: Kinase Selectivity, Tables 2a-2k; read-out: Insulin R Kinase IC50. In outline:
as §1

Test [2] deals with T3, Casein Kinase 1 (CK1 delta isoform) (Rattus norvegicus, UniProt Q06486).
T3 construct: a truncation at amino acid 318 of the C-terminal portion of the rat CK1 delta isoform; purchased New England Biolabs 6030; host or cells: E. coli
T3 sequence (Q06486 1-317): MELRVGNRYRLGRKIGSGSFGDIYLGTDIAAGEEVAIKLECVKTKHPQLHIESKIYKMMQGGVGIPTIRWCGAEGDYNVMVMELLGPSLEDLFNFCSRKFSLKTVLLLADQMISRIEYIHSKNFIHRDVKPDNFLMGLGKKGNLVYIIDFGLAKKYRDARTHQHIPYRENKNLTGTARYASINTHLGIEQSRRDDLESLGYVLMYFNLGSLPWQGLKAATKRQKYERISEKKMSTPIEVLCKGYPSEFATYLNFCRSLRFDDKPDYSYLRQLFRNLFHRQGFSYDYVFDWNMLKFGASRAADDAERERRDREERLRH
Kind of test: Kinase Selectivity Assay Casein Kinase 1. The conditions noted are these: Tables 2a-2k, read-out: Caseine Kinase 1 IC50. In outline: as §1

Test [3] concerns the target T4, MAP Kinase (ERK-2 isoform) (Rattus norvegicus, UniProt P63086).
T4 construct: polyhistidine (N); host or cells: E. coli
Kind of test: Kinase Selectivity Assay MAP Kinase (ERK-2). Particulars: Kinase Selectivity, Tables 2a-2k; read-out: ERK 2 IC50. In outline: as §1

Test [4] deals with T5, Calmodulin Kinase (calmodulin-dependent protein kinase 2) (Rattus norvegicus, UniProt P11275).
T5 construct: a truncated version of the alpha subunit of the rat protein; purchased New England Biolabs 6060; host or cells: insect cells
In words: Kinase Selectivity Assay Calmodulin Kinase. The conditions noted are these: Kinase Selectivity, Tables 2a-2k; read-out: Calmodulin Kinase 2 IC50. In outline: as §1

[5] abbreviates: Kinase Selectivity, Tables 2a-2k.

Like-named read-outs stand apart in the source and are kept apart here. Where only a bound is given, the exact number is not on record here.

T4 sequence (P63086 whole entry, canonical isoform): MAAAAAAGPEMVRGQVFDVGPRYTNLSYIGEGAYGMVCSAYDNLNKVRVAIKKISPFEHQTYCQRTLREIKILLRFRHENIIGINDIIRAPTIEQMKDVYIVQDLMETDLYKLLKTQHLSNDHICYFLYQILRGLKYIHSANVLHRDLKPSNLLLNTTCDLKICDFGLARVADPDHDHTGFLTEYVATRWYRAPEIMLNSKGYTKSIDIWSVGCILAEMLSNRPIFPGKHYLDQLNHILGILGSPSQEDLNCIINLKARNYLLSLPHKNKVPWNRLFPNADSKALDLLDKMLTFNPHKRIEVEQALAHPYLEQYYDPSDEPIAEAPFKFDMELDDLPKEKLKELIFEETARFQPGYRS
T1 sequence (P68400 whole entry): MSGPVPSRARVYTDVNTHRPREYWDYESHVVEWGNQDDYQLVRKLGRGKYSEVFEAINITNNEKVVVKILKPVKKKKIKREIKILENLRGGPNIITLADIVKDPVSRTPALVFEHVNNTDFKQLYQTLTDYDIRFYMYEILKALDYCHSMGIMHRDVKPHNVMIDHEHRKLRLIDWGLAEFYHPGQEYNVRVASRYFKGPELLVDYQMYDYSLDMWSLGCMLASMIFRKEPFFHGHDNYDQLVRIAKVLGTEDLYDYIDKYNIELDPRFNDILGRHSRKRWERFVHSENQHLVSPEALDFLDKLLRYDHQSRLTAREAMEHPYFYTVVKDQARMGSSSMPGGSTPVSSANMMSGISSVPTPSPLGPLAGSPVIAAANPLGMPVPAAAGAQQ
T1 sequence (P67870 whole entry partner): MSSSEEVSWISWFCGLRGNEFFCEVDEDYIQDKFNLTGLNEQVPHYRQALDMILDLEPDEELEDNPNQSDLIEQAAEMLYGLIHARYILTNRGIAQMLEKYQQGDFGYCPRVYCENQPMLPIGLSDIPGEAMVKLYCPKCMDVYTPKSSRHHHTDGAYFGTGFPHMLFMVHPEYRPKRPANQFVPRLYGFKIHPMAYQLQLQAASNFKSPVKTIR
Sequence of Insulin Receptor Kinase (P06213 980-1352): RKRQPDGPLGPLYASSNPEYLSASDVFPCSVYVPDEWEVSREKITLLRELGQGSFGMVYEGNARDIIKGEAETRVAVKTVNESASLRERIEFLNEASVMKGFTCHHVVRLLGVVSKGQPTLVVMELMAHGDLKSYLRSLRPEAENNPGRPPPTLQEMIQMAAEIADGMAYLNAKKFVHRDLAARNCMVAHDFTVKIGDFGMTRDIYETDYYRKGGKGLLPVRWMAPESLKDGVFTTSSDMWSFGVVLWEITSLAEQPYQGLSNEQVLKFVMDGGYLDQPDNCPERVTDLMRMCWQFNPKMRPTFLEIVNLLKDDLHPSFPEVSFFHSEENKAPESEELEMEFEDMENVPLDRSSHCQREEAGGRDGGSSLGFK

On to `Nc1nc(Nc2ccc(S(N)(=O)=O)cc2)nn1C(=O)c1c(F)cccc1Cl` [Cpd 70, 4-[[5-amino-1-(2-chloro-6-fluorobenzoyl)-1H-1,2,4-triazol-3-yl]amino]-benzenesulfonamide], for which the IC50 – broadly, the concentration needed to halve the response being measured – in test [1] is more than 100 µM; on CDK1:Cyclin-B (setting [5]), 0.035 µM; at CDK1:Cyclin-B (Table 1), 0.035 µM; at Insulin Receptor Kinase it was more than 100 µM; in test [2], 35.7 µM; in test [3], 19.4 µM. Also, in test [4], the IC50 is more than 100 µM.

Consider `CN1CCN(c2ccc(Nc3nc(N)n(C(=O)c4c(F)cccc4F)n3)cc2)CC1` [Cpd 71, 1-(2,6-difluorobenzoyl)-N^3-[4-(4-methyl-1-piperazinyl)phenyl]-1H-1,2,4-triazole-3,5-diamine], for which the IC50 in test [1] is more than 100 µM; on CDK1:Cyclin-B (setting [5]) it was 3.71 µM; at CDK1:Cyclin-B (Table 1), 3.71 µM; at Insulin Receptor Kinase, 35.3 µM; in test [2] it was more than 100 µM; in test [3], more than 100 µM. In addition, the IC50 in test [4] is 60.9 µM.

Turning to `CNS(=O)(=O)c1ccc(Nc2nc(N)n(C(=O)c3sccc3C)n2)cc1` [Cpd 82, 4-[[5-amino-1-[(3-methyl-2-thienyl)carbonyl]-1H-1,2,4-triazol-3-yl]amino]-N-methyl-benzenesulfonamide], the IC50 in test [1] is more than 100 µM; at CDK1:Cyclin-B (setting [5]), 0.009 µM; at CDK1:Cyclin-B (Table 1) it was 0.009 µM; at Insulin Receptor Kinase, 1.1 µM; in test [2] it was 0.354 µM; in test [3], 1.95 µM. Also, in test [4], the IC50 is more than 100 µM.

Turning to `CCc1ccc(C(=O)n2nc(Nc3ccc(S(=O)(=O)NC)cc3)nc2N)s1` [Cpd 84, 4-[[5-amino-1-[(5-ethyl-2-thienyl)carbonyl]-1H-1,2,4-triazol-3-yl]amino]-N-methyl-benzenesulfonamide], the IC50 in test [1] amounted to 1.67 µM; at CDK1:Cyclin-B (setting [5]) it was 0.004 µM; on CDK1:Cyclin-B (Table 1) it was 0.0038 µM; on Insulin Receptor Kinase, 0.172 µM; in test [2], 0.188 µM; in test [3], 1.22 µM. In test [4], the IC50 is more than 100 µM.

Consider `CCc1ccc(C(=O)n2nc(Nc3ccc(S(=O)(=O)NCCN(C)C)cc3)nc2N)s1` [Cpd 103, 4-[[5-amino-1-[(5-ethyl-2-thienyl)carbonyl]-1H-1,2,4-triazol-3-yl]amino]-N-[2-(dimethylamino)ethyl]-benzenesulfonamide], for which the IC50 in test [1] was determined as 5.3 µM; at CDK1:Cyclin-B (setting [5]), 0.007 µM; at CDK1:Cyclin-B (Table 1), 0.0074 µM; on Insulin Receptor Kinase, 0.123 µM; in test [2], 0.322 µM; in test [3], 0.845 µM. The IC50 in test [4] is more than 100 µM.

Consider `Cc1ccsc1C(=O)n1nc(Nc2ccc(S(=O)(=O)NCCN(C)C)cc2)nc1N` [Cpd 104, 4-[[5-amino-1-[(3-methyl-2-thienyl)carbonyl]-1H-1,2,4-triazol-3-yl]amino]-N-[2-(dimethylamino)ethyl]-benzenesulfonamide], for which the IC50 in test [1] was more than 100 µM; on CDK1:Cyclin-B (setting [5]), 0.0016 µM; at CDK1:Cyclin-B (Table 1) it was 0.0156 µM; on Insulin Receptor Kinase, 2.09 µM; in test [2], 0.624 µM; in test [3], more than 100 µM. In test [4], the IC50 was more than 10 µM.

For `Cc1ccsc1C(=O)n1nc(Nc2ccc(N3CCNC3=O)cc2)nc1N` [Cpd 113, 1-[4-[[5-amino-1-[(3-methyl-2-thienyl)carbonyl]-1H-1,2,4-triazol-3-yl]amino]phenyl]-2-imidazolidinone], the IC50 was more than 100 µM in test [1]; 0.254 µM on CDK1:Cyclin-B (setting [5]); 0.255 µM on CDK1:Cyclin-B (Table 1); more than 10 µM on Insulin Receptor Kinase; 0.318 µM in test [2]; more than 100 µM in test [3]. Besides, the IC50 in test [4] was more than 10 µM.

As to `Cc1ccsc1C(=O)n1nc(Nc2ccc(N3CCCS3(=O)=O)cc2)nc1N` [Cpd 116, N^3-[4-(1,1-dioxido-2-isothiazolidinyl)phenyl]-1-[(3-methyl-2-thienyl)carbonyl]-1H-1,2,4-triazole-3,5-diamine], the IC50 in test [1] is more than 100 µM; at CDK1:Cyclin-B (setting [5]), 0.021 µM; at CDK1:Cyclin-B (Table 1), 0.0208 µM; at Insulin Receptor Kinase it was more than 100 µM; in test [2] it was more than 1 µM; in test [3] it was more than 100 µM. Further, in test [4], the IC50 was more than 100 µM.

Turning to `Nc1nc(Nc2ccc(S(=O)(=O)Nc3ccccn3)cc2)nn1C(=O)c1c(F)cccc1F` [Cpd 118, 4-[[5-amino-1-(2,6-difluorobenzoyl)-1H-1,2,4-triazol-3-yl]amino]-N-(2-pyridinyl)-benzenesulfonamide], the IC50 is more than 100 µM in test [1]; 0.33 µM at CDK1:Cyclin-B (setting [5]); 0.33 µM at CDK1:Cyclin-B (Table 1); more than 100 µM at Insulin Receptor Kinase; more than 100 µM in test [2]; more than 100 µM in test [3]. The IC50 in test [4] was more than 100 µM.

For `Cc1cc(C)c(C(=O)n2nc(Nc3ccc(S(=O)(=O)Nc4ccccn4)cc3)nc2N)s1` [Cpd 120], the IC50 in test [1] was more than 100 µM; at CDK1:Cyclin-B (setting [5]), 0.277 µM; at CDK1:Cyclin-B (Table 1), 0.277 µM; on Insulin Receptor Kinase, more than 100 µM; in test [2] it was more than 10 µM; in test [3] it was more than 100 µM. For the same compound, the IC50 in test [4] is more than 100 µM.

For `Cc1ccc(F)c(C(=O)n2nc(N)nc2Nc2ccc(S(N)(=O)=O)cc2)c1F` [Cpd 123, 4-[[3-amino-1-(2,6-difluoro-3-methylbenzoyl)-1H-1,2,4-triazol-5-yl]amino]-benzenesulfonamide], the IC50 in test [1] was more than 100 µM; on CDK1:Cyclin-B (setting [5]), 2.05 µM; on CDK1:Cyclin-B (Table 1) it was 2.05 µM; at Insulin Receptor Kinase it was more than 100 µM; in test [2], more than 100 µM; in test [3], more than 100 µM. Moreover, the IC50 in test [4] was more than 100 µM.
